Measured values as given in patent publication US7238694B2, “Rifamycin imino derivatives effective against drug-resistant microbes” (Cumbre Pharmaceuticals, Inc., priority 2004, dated 2007).
Values after ≈ are worked out from the molar mass of the structure shown.

Assays:
Assay type in all cases: cell-based
[1] = test system: Streptococcus pyogenes ATCC19615; test: MIC, microbroth dilution (NCCLS); details: rifS strain, THY Broth, 37° C., read-out: MIC
[2] = test system: Staphylococcus epidermidis ATCC12228; test: MIC, microbroth dilution (NCCLS); details: rifS strain, Cation-Adjusted Mueller-Hinton Broth, 37° C., read-out: MIC
[3] = test system: Haemophilus influenzae ATCC10211; test: MIC, microbroth dilution (NCCLS); details: rifS strain, BHI Broth with NAD and hematin, 37° C., read-out: MIC
[4] = test system: Streptococcus pneumoniae ATCC6303; test: MIC, microbroth dilution (NCCLS); details: rifS strain, THY Broth with 1 mg/mL catalase, 5% CO2, 37° C., read-out: MIC
[5] = test system: Staphylococcus aureus ATCC29213 rpoB^H418Y; test: microbe, parasite or virus in culture; details: Staphylococcus aureus, ATCC29213; rifR strain; Cation-Adjusted Mueller-Hinton Broth, 37° C.; read-out: MIC
[6] = test system: Staphylococcus aureus MT1222 gyrA^A116E grlB^S80F; test: microbe, parasite or virus in culture; details: cipR strain, Cation-Adjusted Mueller-Hinton Broth, 37° C., read-out: MIC
[7] = test system: Staphylococcus aureus ATCC29213; test: MIC, microbroth dilution (NCCLS); details: rifS strain, Cation-Adjusted Mueller-Hinton Broth, 37° C., read-out: MIC

Compound | MIC [1] [µg/mL] | MIC [2] [µg/mL] | MIC [3] [µg/mL] | MIC [4] [µg/mL] | MIC [5] [µg/mL] | MIC [6] [µg/mL] | MIC [7] [µg/mL]
COc1c(N2CCC(N3CCN(/N=C/c4c5c(O)c6c(O)c(C)c7c(c6c4O)C(=O)[C@@](C)(O/C=C/[C@H](OC)[C@@H](C)[C@@H](OC(C)=O)[C@H](C)[C@H](O)[C@H](C)[C@@H](O)[C@@H](C)/C=C/C=C(/C)C(=O)N5)O7)CC3)C2)c(F)cc2c(=O)c(C(=O)O)cn(C3CC3)c12 (mixture of isomers) [Example 33, (R/S)-3-{4-[1-(3-Carboxy-1-cyclopropyl-6-fluoro-8-methoxyoxo-1,4-dihydroquinolin-7-yl)-pyrrolidin-3-yl]-piperazin-1-yl-aminomethylenyl}-rifamycin SV] | 0.008 to 0.03 (≈ 0.00694 to 0.026 µM) | 0.008 to 0.1 (≈ 0.00694 to 0.0867 µM) | 0.125 to 4 (≈ 0.108 to 3.47 µM) | 0.008 to 0.06 (≈ 0.00694 to 0.052 µM) | 0.06 to 16 (≈ 0.052 to 13.9 µM) | 0.008 to 0.125 (≈ 0.00694 to 0.108 µM) | 0.008 to 1 (≈ 0.00694 to 0.867 µM)
CO[C@H]1/C=C/O[C@@]2(C)Oc3c(C)c(O)c4c(O)c(c(/C=N/N5CCN(C6CCN(c7nc8c(cc7F)c(=O)c(C(=O)O)cn8-c7ccc(F)cc7F)C6)CC5)c(O)c4c3C2=O)NC(=O)/C(C)=C\C=C\[C@H](C)[C@H](O)[C@@H](C)[C@@H](O)[C@@H](C)[C@H](OC(C)=O)[C@@H]1C (mixture of isomers) [Example 34] | 0.008 to 0.03 (≈ 0.00669 to 0.0251 µM) | 0.008 to 0.1 (≈ 0.00669 to 0.0836 µM) | 0.125 to 4 (≈ 0.104 to 3.34 µM) | 0.008 to 0.06 (≈ 0.00669 to 0.0502 µM) | 0.06 to 16 (≈ 0.0502 to 13.4 µM) | 0.008 to 0.125 (≈ 0.00669 to 0.104 µM) | 0.008 to 1 (≈ 0.00669 to 0.836 µM)
CO[C@H]1/C=C/O[C@@]2(C)Oc3c(C)c(O)c4c(O)c(c(/C=N/N5CCN(C(=O)C6CCN(c7nc8c(cc7F)c(=O)c(C(=O)O)cn8-c7ccc(F)cc7F)C6)CC5)c(O)c4c3C2=O)NC(=O)/C(C)=C\C=C\[C@H](C)[C@H](O)[C@@H](C)[C@@H](O)[C@@H](C)[C@H](OC(C)=O)[C@@H]1C (mixture of isomers) [Example 36, (R/S)-3-{4-[1-(3-Carboxy-1-(2,4-difluoro-phenyl)-6-fluoro-4-oxo-1,4-dihydro-[1,8]naphthyridine-7-yl)-pyrrolidin-3-yl-carbonyl]-piperazin-1-yl-aminomethylenyl}-rifamycin SV] | 0.008 to 0.03 (≈ 0.00653 to 0.0245 µM) | 0.008 to 0.1 (≈ 0.00653 to 0.0817 µM) | 0.125 to 4 (≈ 0.102 to 3.27 µM) | 0.008 to 0.06 (≈ 0.00653 to 0.049 µM) | 0.06 to 16 (≈ 0.049 to 13.1 µM) | 0.008 to 0.125 (≈ 0.00653 to 0.102 µM) | 0.008 to 1 (≈ 0.00653 to 0.817 µM)
COc1c(N2CCC(C3(N4CCN(/N=C/c5c6c(O)c7c(O)c(C)c8c(c7c5O)C(=O)[C@@](C)(O/C=C/[C@H](OC)[C@@H](C)[C@@H](OC(C)=O)[C@H](C)[C@H](O)[C@H](C)[C@@H](O)[C@@H](C)/C=C/C=C(/C)C(=O)N6)O8)CC4)CC3)C2)c(F)cc2c(=O)c(C(=O)O)cn(C3CC3)c12 (mixture of isomers) [Example 37, (R/S)-3-{4-[1-(3-Carboxy-1-cyclopropyl-6-fluoro-8-methoxy-4-oxo-1,4-dihydroquinoline-7-yl)-pyrrolidin-3-yl-cyclopropyl]-piperazin-1-yl-aminomethylenyl}-rifamycin SV] | 0.008 to 0.03 (≈ 0.0067 to 0.0251 µM) | 0.008 to 0.1 (≈ 0.0067 to 0.0838 µM) | 0.125 to 4 (≈ 0.105 to 3.35 µM) | 0.008 to 0.06 (≈ 0.0067 to 0.0503 µM) | 0.06 to 16 (≈ 0.0503 to 13.4 µM) | 0.008 to 0.125 (≈ 0.0067 to 0.105 µM) | 0.008 to 1 (≈ 0.0067 to 0.838 µM)
CO[C@H]1/C=C/O[C@@]2(C)Oc3c(C)c(O)c4c(O)c(c(/C=N/NCC5CCN(c6c(F)cc7c(=O)c(C(=O)O)cn(C8CC8)c7c6Cl)C5)c(O)c4c3C2=O)NC(=O)/C(C)=C\C=C\[C@H](C)[C@H](O)[C@@H](C)[C@@H](O)[C@@H](C)[C@H](OC(C)=O)[C@@H]1C (mixture of isomers) [Example 39, (R/S)-3-[1-(3-Carboxy-8-chloro-1-cyclopropyl-6-fluoro-4-oxo-1,4-dihydroquinolin-7-yl)-pyrrolidin-3-yl-methyl-hydrazino-methylenyl]-rifamycin SV] | 0.008 to 0.03 (≈ 0.00726 to 0.0272 µM) | 0.008 to 0.1 (≈ 0.00726 to 0.0907 µM) | 0.125 to 4 (≈ 0.113 to 3.63 µM) | 0.008 to 0.06 (≈ 0.00726 to 0.0544 µM) | 0.06 to 16 (≈ 0.0544 to 14.5 µM) | 0.008 to 0.125 (≈ 0.00726 to 0.113 µM) | 0.008 to 1 (≈ 0.00726 to 0.907 µM)
